In patent US11053204B2, “Pyrimidinyloxy benzene derivatives as herbicides” (FMC Corporation, priority 2015, dated 2021):

How the values were obtained:
Assay type in all cases: in vivo
corn (Zea mays) = assay: Test A postemergence, visual injury rating; details: 0 is no effect, 100 is complete control
Outline: (§1)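 Compounds in non-phytotoxic solvent with surfactant applied as soil spray preemergence, or postemergence to plants 2-10 cm at one- to two-leaf stage, in loam/sand. After approximately 10 days in greenhouse, injury rated visually versus untreated controls, 0 (no effect) to 100 (complete control).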

kochia (Kochia scoparia) = assay: Test A postemergence, visual injury rating; details: 0 is no effect, 100 is complete control; for Kochia plant response rating: 0 to 100 scale, approximately 10 days
Outline: as §1

[1] = tested on: wheat (Triticum aestivum); assay: Test A postemergence, visual injury rating; details: 0 is no effect, 100 is complete control; for Wheat plant response rating: 0 to 100 scale, approximately 10 days
Outline: as §1

[2] = tested on: pigweed (Amaranthus retroflexus); assay: Test A postemergence, visual injury rating; details: 0 is no effect, 100 is complete control; for Pigweed plant response rating: 0 to 100 scale, approximately 10 days
Outline: as §1

[3] = tested on: barnyardgrass (Echinochloa crus-galli); assay: Test A postemergence, visual injury rating; details: 0 is no effect, 100 is complete control
Outline: as §1

[4] = tested on: giant foxtail (Setaria faberii); assay: Test A postemergence, visual injury rating; details: 0 is no effect, 100 is complete control
Outline: as §1

[5] = tested on: galium (catchweed bedstraw, Galium aparine); assay: Test A postemergence, visual injury rating; details: 0 is no effect, 100 is complete control
Outline: as §1

[6] = tested on: ragweed (common ragweed, Ambrosia elatior); assay: Test A postemergence, visual injury rating; details: 0 is no effect, 100 is complete control; for Ragweed plant response rating: 0 to 100 scale, approximately 10 days
Outline: as §1

[7] = tested on: Italian ryegrass (Lolium multiflorum); assay: Test A postemergence, visual injury rating; details: 0 is no effect, 100 is complete control; for Ryegrass, Italian plant response rating: 0 to 100 scale, approximately 10 days
Outline: as §1

[8] = tested on: blackgrass (Alopecurus myosuroides); assay: Test A postemergence, visual injury rating; details: 0 is no effect, 100 is complete control
Outline: as §1

[9] = tested on: waterhemp (common waterhemp, Amaranthus rudis); assay: Test C postemergence, plant response rating; details: for Waterhemp plant response rating: scale 0 to 100 (0 no effect, 100 complete control)
Outline: (§2)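 Pre-emergence: seeds sown in loam soil–sand blend or silt loam and sprayed with test chemicals in a non-phytotoxic solvent mixture with surfactant. Post-emergence: plants 2 to 18 cm (1- to 4-leaf stage) in peat-based potting medium, same formulation. Greenhouse 13 to 15 d; visual rating 0 (no effect) to 100 (complete control) versus controls.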

soybean (Glycine max) = assay: Test C postemergence, plant response rating; details: for Soybean plant response rating: scale 0 to 100 (0 no effect, 100 complete control)
Outline: as §2

[10] = tested on: wheat (winter wheat, Triticum aestivum); assay: Test C postemergence, plant response rating; details: for Wheat plant response rating: scale 0 to 100 (0 no effect, 100 complete control)
Outline: as §2

[11] = tested on: chickweed (common chickweed, Stellaria media); assay: Test C postemergence, plant response rating; details: for Chickweed plant response rating: scale 0 to 100 (0 no effect, 100 complete control)
Outline: as §2

[12] = tested on: galium (catchweed bedstraw, Galium aparine); assay: Test C postemergence, plant response rating; details: for Galium plant response rating: scale 0 to 100 (0 no effect, 100 complete control)
Outline: as §2

[13] = tested on: foxtail, giant (giant foxtail, Setaria faberii); assay: Test C postemergence, plant response rating; details: for Foxtail, Giant plant response rating: scale 0 to 100 (0 no effect, 100 complete control)
Outline: as §2

[14] = tested on: oilseed rape (Brassica napus); assay: Test C postemergence, plant response rating; details: for Oilseed Rape plant response rating: scale 0 to 100 (0 no effect, 100 complete control)
Outline: as §2

[15] = tested on: blackgrass (Alopecurus myosuroides); assay: Test C postemergence, plant response rating; details: for Plant response rating, Blackgrass: scale 0 to 100; for Blackgrass plant response rating: scale 0 to 100 (0 no effect, 100 complete control)
Outline: as §2

[16] = tested on: ryegrass, Italian (Italian ryegrass, Lolium multiflorum); assay: Test C postemergence, plant response rating; details: for Ryegrass, Italian plant response rating: scale 0 to 100 (0 no effect, 100 complete control)
Outline: as §2

[17] = 31 g ai/ha, 0 to 100 scale, approximately 10 days

O=C(CCCC(F)(F)F)c1c(Br)cccc1Oc1ncc(Cl)cn1 [Compound 77]
Corn plant response rating (corn (Zea mays); [17]): 10
Corn plant response rating (0 to 100 scale) (corn (Zea mays); 125 g ai/ha): 30
Kochia plant response rating (kochia (Kochia scoparia); 31 g ai/ha): 100
Kochia plant response rating (kochia (Kochia scoparia); 125 g ai/ha): 100
Wheat plant response rating ([1]; 31 g ai/ha): 0
Wheat plant response rating ([1]; 125 g ai/ha): 10
Pigweed plant response rating ([2]; 31 g ai/ha): 100
Pigweed plant response rating ([2]; 125 g ai/ha): 100
Barnyardgrass plant response rating [3, 17]: 30
Barnyardgrass plant response rating (0 to 100 scale) ([3]; 125 g ai/ha): 90
Foxtail, Giant plant response rating [4, 17]: 30
Foxtail, Giant plant response rating (0 to 100 scale) ([4]; 125 g ai/ha): 90
Galium plant response rating [5, 17]: 90
Galium plant response rating (0 to 100 scale) ([5]; 125 g ai/ha): 100
Ragweed plant response rating ([6]; 31 g ai/ha): 0
Ragweed plant response rating ([6]; 125 g ai/ha): 0
Ryegrass, Italian plant response rating ([7]; 31 g ai/ha): 20
Ryegrass, Italian plant response rating ([7]; 125 g ai/ha): 60
Blackgrass plant response rating [8, 17]: 20
Blackgrass plant response rating (0 to 100 scale) ([8]; 125 g ai/ha): 50
Plant response rating, Waterhemp ([9]; 16 g ai/ha, scale of 0 to 100): 95
Plant response rating, Waterhemp ([9]; 31 g ai/ha, scale 0 to 100): 98
Waterhemp plant response rating ([9]; 62 g ai/ha): 100
Waterhemp plant response rating ([9]; 125 g ai/ha): 100
Plant response rating, Soybean (soybean (Glycine max); 16 g ai/ha, scale of 0 to 100): 25
Plant response rating, Soybean (soybean (Glycine max); 31 g ai/ha, scale 0 to 100): 50
Soybean plant response rating (soybean (Glycine max); 62 g ai/ha): 70
Soybean plant response rating (soybean (Glycine max); 125 g ai/ha): 65
Plant response rating, Wheat ([10]; 16 g ai/ha, scale of 0 to 100): 0
Plant response rating, Wheat ([10]; 31 g ai/ha, scale 0 to 100): 0
Wheat plant response rating ([10]; 62 g ai/ha): 10
Wheat plant response rating ([10]; 125 g ai/ha): 30
Plant response rating, Chickweed ([11]; 16 g ai/ha, scale of 0 to 100): 80
Plant response rating, Chickweed ([11]; 31 g ai/ha, scale 0 to 100): 80
Chickweed plant response rating ([11]; 62 g ai/ha): 100
Chickweed plant response rating ([11]; 125 g ai/ha): 100
Plant response rating, Galium ([12]; 16 g ai/ha, scale of 0 to 100): 75
Plant response rating, Galium ([12]; 31 g ai/ha, scale 0 to 100): 98
Galium plant response rating ([12]; 62 g ai/ha): 95
Galium plant response rating ([12]; 125 g ai/ha): 98
Plant response rating, Foxtail, Giant ([13]; 16 g ai/ha, scale of 0 to 100): 10
Plant response rating, Foxtail, Giant ([13]; 31 g ai/ha, scale 0 to 100): 20
Foxtail, Giant plant response rating ([13]; 62 g ai/ha): 25
Foxtail, Giant plant response rating ([13]; 125 g ai/ha): 70
Plant response rating, Oilseed Rape ([14]; 16 g ai/ha, scale of 0 to 100): 10
Plant response rating, Oilseed Rape ([14]; 31 g ai/ha, scale 0 to 100): 70
Oilseed Rape plant response rating ([14]; 62 g ai/ha): 70
Oilseed Rape plant response rating ([14]; 125 g ai/ha): 85
Plant response rating, Blackgrass ([15]; 16 g ai/ha): 5
Plant response rating, Blackgrass ([15]; 31 g ai/ha): 20
Blackgrass plant response rating ([15]; 62 g ai/ha): 20
Blackgrass plant response rating ([15]; 125 g ai/ha): 25
Plant response rating, Ryegrass, Italian ([16]; 16 g ai/ha, scale of 0 to 100): 0
Plant response rating, Ryegrass, Italian ([16]; 31 g ai/ha, scale 0 to 100): 5
Ryegrass, Italian plant response rating ([16]; 62 g ai/ha): 10
Ryegrass, Italian plant response rating ([16]; 125 g ai/ha): 10

CCCCC(=O)c1c(Br)cccc1Oc1ncc(Cl)cn1 [Compound 79]
Corn plant response rating (0 to 100 scale) (corn (Zea mays); 125 g ai/ha): 80
Corn plant response rating (0 to 100 scale) (corn (Zea mays); 500 g ai/ha): 90
Kochia plant response rating (kochia (Kochia scoparia); 125 g ai/ha): 100
Kochia plant response rating (0 to 100 scale) (kochia (Kochia scoparia); 500 g ai/ha): 100
Wheat plant response rating ([1]; 125 g ai/ha): 20
Wheat plant response rating (0 to 100 scale) ([1]; 500 g ai/ha): 30
Pigweed plant response rating ([2]; 125 g ai/ha): 100
Pigweed plant response rating (0 to 100 scale) ([2]; 500 g ai/ha): 100
Barnyardgrass plant response rating (0 to 100 scale) ([3]; 125 g ai/ha): 90
Barnyardgrass plant response rating (0 to 100 scale) ([3]; 500 g ai/ha): 100
Foxtail, Giant plant response rating (0 to 100 scale) ([4]; 125 g ai/ha): 80
Foxtail, Giant plant response rating (0 to 100 scale) ([4]; 500 g ai/ha): 80
Galium plant response rating (0 to 100 scale) ([5]; 125 g ai/ha): 90
Galium plant response rating (0 to 100 scale) ([5]; 500 g ai/ha): 100
Ragweed plant response rating ([6]; 125 g ai/ha): 30
Ragweed plant response rating (0 to 100 scale) ([6]; 500 g ai/ha): 40
Ryegrass, Italian plant response rating ([7]; 125 g ai/ha): 90
Ryegrass, Italian plant response rating (0 to 100 scale) ([7]; 500 g ai/ha): 90
Blackgrass plant response rating (0 to 100 scale) ([8]; 125 g ai/ha): 50
Blackgrass plant response rating (0 to 100 scale) ([8]; 500 g ai/ha): 90
Plant response rating, Waterhemp ([9]; 16 g ai/ha, scale of 0 to 100): 95
Plant response rating, Waterhemp ([9]; 31 g ai/ha, scale 0 to 100): 95
Waterhemp plant response rating ([9]; 125 g ai/ha): 98
Plant response rating, Soybean (soybean (Glycine max); 16 g ai/ha, scale of 0 to 100): 60
Plant response rating, Soybean (soybean (Glycine max); 31 g ai/ha, scale 0 to 100): 70
Soybean plant response rating (soybean (Glycine max); 62 g ai/ha): 65
Soybean plant response rating (soybean (Glycine max); 125 g ai/ha): 65
Plant response rating, Wheat ([10]; 16 g ai/ha, scale of 0 to 100): 5
Plant response rating, Wheat ([10]; 31 g ai/ha, scale 0 to 100): 5
Wheat plant response rating ([10]; 125 g ai/ha): 15
Plant response rating, Chickweed ([11]; 16 g ai/ha, scale of 0 to 100): 95
Plant response rating, Chickweed ([11]; 31 g ai/ha, scale 0 to 100): 90
Chickweed plant response rating ([11]; 62 g ai/ha): 95
Chickweed plant response rating ([11]; 125 g ai/ha): 98
Plant response rating, Galium ([12]; 16 g ai/ha, scale of 0 to 100): 75
Plant response rating, Galium ([12]; 31 g ai/ha, scale 0 to 100): 80
Galium plant response rating ([12]; 62 g ai/ha): 85
Galium plant response rating ([12]; 125 g ai/ha): 95
Plant response rating, Foxtail, Giant ([13]; 16 g ai/ha, scale of 0 to 100): 10
Plant response rating, Foxtail, Giant ([13]; 31 g ai/ha, scale 0 to 100): 20
Foxtail, Giant plant response rating ([13]; 62 g ai/ha): 25
Foxtail, Giant plant response rating ([13]; 125 g ai/ha): 40
Plant response rating, Oilseed Rape ([14]; 16 g ai/ha, scale of 0 to 100): 80
Plant response rating, Oilseed Rape ([14]; 31 g ai/ha, scale 0 to 100): 98
Oilseed Rape plant response rating ([14]; 62 g ai/ha): 98
Oilseed Rape plant response rating ([14]; 125 g ai/ha): 100
Plant response rating, Blackgrass ([15]; 16 g ai/ha): 20
Plant response rating, Blackgrass ([15]; 31 g ai/ha): 10
Blackgrass plant response rating ([15]; 62 g ai/ha): 20
Blackgrass plant response rating ([15]; 125 g ai/ha): 30
Plant response rating, Ryegrass, Italian ([16]; 16 g ai/ha, scale of 0 to 100): 5
Plant response rating, Ryegrass, Italian ([16]; 31 g ai/ha, scale 0 to 100): 30
Ryegrass, Italian plant response rating ([16]; 62 g ai/ha): 25
Ryegrass, Italian plant response rating ([16]; 125 g ai/ha): 30
